Assay results reported in patent US20030083822A2, “SYSTEMS AND METHODS FOR […] INFORMATICS” (PsychoGenics, Inc., priority 2001, published 2003).

System: mice
Assay: Transition-matrix analysis of behavior of drug-treated mice, coded by human observers (Figure 13)
Assay type: in vivo
Conditions: average matrix of drug treated mice normalized to control (vehicle) matrix; increase
Description: Testing drugs several times and comparing the results can address replication. Significance is illustrated in Figure 13, where exemplary data is shown from an experiment in which mice were treated with one of the indicated drugs ensuing behavior was recorded and later coded by human observers. In the analysis of transition matrices, the average matrix of the drug treated mice was combined with the average matrix of the control mice. The control data was treated as the "population" data as it was expected to have very large numbers from mice treated with same vehicle as more and more experiments that require such vehicle are conducted.
Referring again to Figure 13, the average transition matrix was transformed as a z-score matrix based on the mean and standard error of the control matrix. In doing so, every drug transition (fd,i) subtracted the corresponding control transition (fc,i) and divided by the standard error (sc,i), as in zd,i=((fd,i)-(fc,i))/(sc,i) was obtained. Although this is just one possible way to normalize the data (e.g., student t-scores can also be calculated), it has some intuitive appeal, as the z-scores can now be read as distance from the control in standard-deviation units. Thus, in Figure 13, the first cell of the matrix corresponding to chlordiazepoxide (CDP), can be read as "CDP increased the number of rear-rear transitions more than 30 fold". […]

Structure (SMILES): CNC1=Nc2ccc(Cl)cc2C(c2ccccc2)=[N+]([O-])C1 [CDP, chlordiazepoxide]
- number of rear-rear transitions (first cell of the z-score transition matrix): more than 30 fold
